# Measurements taken from patent US20160137639A1, “TRIAZOLE-ISOXAZOLE COMPOUND AND MEDICAL USE THEREOF” (JAPAN TOBACCO INC., priority 2012, published 2016).
# Target: T1, human RORγ (Homo sapiens, UniProt P51449)
# T1 construct: human, NM_005060.3 and from Ser253 to Lys518; expressed in transfected cells; host or cells: CHO cells (transient co-transfection with pG5-Luc reporter)
# T1 sequence (P51449 253-518): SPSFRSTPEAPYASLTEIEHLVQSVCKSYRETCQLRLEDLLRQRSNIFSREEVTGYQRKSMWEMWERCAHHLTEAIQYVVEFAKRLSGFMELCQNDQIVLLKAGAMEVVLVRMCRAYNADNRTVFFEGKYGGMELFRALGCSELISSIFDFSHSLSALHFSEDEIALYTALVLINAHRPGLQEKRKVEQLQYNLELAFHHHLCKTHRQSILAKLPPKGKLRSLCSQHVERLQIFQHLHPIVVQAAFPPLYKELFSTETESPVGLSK
# Assay: Luciferase reporter gene assay of inhibitory effect against RORγ transcriptional activity (GAL4-hRORγ plasmid in CHO cells)
# Format: cell-based
# Conditions: read-out: LUC EC50 (μM) hRORg
row,Compound,EC50
1,Cc1c(Cl)cccc1NC(=O)CCc1nnc(CCOC(C)(C)C(F)(F)F)n1C1CC1 [Example F-304],< 3 µM
2,Cc1ccc(NC(=O)CC(Cc2nc(=O)on2C)c2nnc([C@H]3C[C@@H](CC(C)C)C3)n2C2CC2)c(C)c1 (mixture of isomers) [Example F-485],< 3 µM
3,Cc1ccc(NC(=O)[C@H]2CN(S(C)(=O)=O)C[C@@H]2c2nnc(CCCC(C)(C)C)n2C2CC2)c(C)c1 (racemic) [Example F-397],< 3 µM
4,CCC(CC)C[C@H]1C[C@H](c2nnc(CCC(=O)Nc3ccc(C)cc3C)n2C2CC2)C1 [Example F-495],< 3 µM
5,Cc1ccc(NC(=O)CC(c2nnc([C@H]3C[C@@H](CC(C)C)C3)n2C2CC2)C2CN(C)C2)c(C)c1 (mixture of isomers) [Example F-469],> 3 µM
6,"COC1(CC(C)C)CC(c2nnc([C@H]3CN(C(C)=O)C[C@@H]3C(=O)Nc3ccc(C)cc3C)n2C2CC2)C1 (single isomer, unassigned) [Example F-483]",< 3 µM
7,Cc1cc(C)cc(NC(=O)CCc2nnc(CCC(C)C)n2C2CC2)c1 [Example F-76],> 3 µM
8,CC(=O)N1C[C@H](C(=O)Nc2ccc(C)cc2C)[C@@H](c2nnc(CCC3CCCCC3)n2C2CC2)C1 [Example F-402],< 3 µM
9,Cc1cccc(CNC(=O)CCc2nnc(CCC(C)C)n2C2CC2)c1 [Example F-60],> 3 µM
10,Cc1ccc(NC(=O)CCc2nnc(CCC3(C)CCCCC3)n2C2CC2)c(C)c1 [Example F-269],< 3 µM
11,CCCC(CCC)NC(=O)CCc1nnc(C2Cc3ccccc3C2)n1CC [Example F-28],> 3 µM
12,Cc1ccc(NC(=O)CC(CCN(C)C)c2nnc(CCCC(C)C)n2C2CC2)c(C)c1 (racemic) [Example F-276],> 3 µM
13,Cc1ccc(NC(=O)C[C@H](CCC(=O)O)c2noc(-c3cc(CC(C)C)n(C)n3)c2C2CC2)c(Cl)c1 [Example E-26],< 3 µM
14,CC(=O)N1C[C@@H](C(=O)Nc2ccc(C)cc2C)[C@H](c2nnc(C3CC4(CCCCC4)C3)n2C2CC2)C1 [Example F-474],> 3 µM
15,CCCc1ccccc1NC(=O)CCc1nnc(CCC(C)C)n1C1CC1 [Example F-77],> 3 µM
16,CCn1c(CCC(=O)Nc2ccc(C)cc2C)nnc1CCC1CCCC1 [Example F-48],> 3 µM
17,Cc1c(Cl)cccc1NC(=O)CCc1nnc(CCC2CCCN(C)C2)n1C1CC1 (racemic) [Example F-203],> 3 µM
18,Cc1ccc(NC(=O)C[C@H](CCC(=O)O)c2noc(-c3cc(C4CC(F)(F)C4)on3)c2C2CC2)c(Cl)c1 [Example E-47],< 3 µM
19,COc1cc(C)c(Cl)cc1CNC(=O)CCc1nnc(CCC(C)C)n1C1CC1 [Example F-204],> 3 µM
20,CCC1(CC)CC(c2nnc(CCC(=O)Nc3ccc(C)cc3C)n2C2CC2)C1 [Example F-451],< 3 µM
21,Cc1ccc(NC(=O)C[C@H](Cc2nccs2)c2nnc([C@H]3C[C@@H](CC(C)C)C3)n2C2CC2)c(C)c1 [Example F-475],< 3 µM
22,CC(=O)N1C[C@H](C(=O)Nc2ccc(C)cc2C)[C@@H](c2nnc(CCC3CCCCC3)n2C2CC2)C1 [Example F-374],< 3 µM
23,Cc1ccc(NC(=O)[C@H]2CN(S(=O)(=O)C(F)(F)F)C[C@@H]2c2nnc(CCCC(C)(C)C)n2C2CC2)c(C)c1 (racemic) [Example F-398],< 3 µM
24,Cc1ccc(NC(=O)CC(CCN)c2nnc(CCCC(C)C)n2C2CC2)c(C)c1 (racemic) [Example F-273],> 3 µM
25,Cc1ccc(NC(=O)CC(CN)c2nnc(CCCC(C)C)n2C2CC2)c(C)c1 (racemic) [Example F-274],> 3 µM

# Target: T2, mouse RORγ (Mus musculus, UniProt P51450)
# T2 construct: mouse, NM_011281.2 and from Ile251 to Lys516; expressed in transfected cells; host or cells: CHO cells (transient co-transfection with pG5-Luc reporter)
# T2 sequence (P51450 251-516): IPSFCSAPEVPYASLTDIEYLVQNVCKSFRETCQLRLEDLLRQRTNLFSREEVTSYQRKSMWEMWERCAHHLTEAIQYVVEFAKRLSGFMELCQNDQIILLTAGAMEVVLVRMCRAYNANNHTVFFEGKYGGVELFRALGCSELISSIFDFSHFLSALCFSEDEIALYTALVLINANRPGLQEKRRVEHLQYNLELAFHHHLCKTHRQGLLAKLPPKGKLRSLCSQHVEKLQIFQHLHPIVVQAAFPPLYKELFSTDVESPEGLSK
# Assay: Luciferase reporter gene assay of inhibitory effect against RORγ transcriptional activity (GAL4-mRORγ plasmid in CHO cells)
# Format: cell-based
# Conditions: read-out: LUC EC50 (μM) mRORg
# Summary of the method: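 Readout is intracellular luciferase after 2-day compound exposure (8 concentrations, 0.1% DMSO) in CHO cells expressing GAL4 fused to mouse RORγ LBD residues Ile251–Lys516 plus pG5-Luc reporter. EC50 fitted from %-of-control; points showing resazurin-detected cytotoxicity dropped.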
row,Compound,EC50
1,Cc1c(Cl)cccc1NC(=O)CCc1nnc(CCOC(C)(C)C(F)(F)F)n1C1CC1 [Example F-304],< 3 µM
2,Cc1ccc(NC(=O)CC(Cc2nc(=O)on2C)c2nnc([C@H]3C[C@@H](CC(C)C)C3)n2C2CC2)c(C)c1 (mixture of isomers) [Example F-485],< 3 µM
3,Cc1ccc(NC(=O)[C@H]2CN(S(C)(=O)=O)C[C@@H]2c2nnc(CCCC(C)(C)C)n2C2CC2)c(C)c1 (racemic) [Example F-397],< 3 µM
4,CCC(CC)C[C@H]1C[C@H](c2nnc(CCC(=O)Nc3ccc(C)cc3C)n2C2CC2)C1 [Example F-495],< 3 µM
5,Cc1ccc(NC(=O)CC(c2nnc([C@H]3C[C@@H](CC(C)C)C3)n2C2CC2)C2CN(C)C2)c(C)c1 (mixture of isomers) [Example F-469],> 3 µM
6,"COC1(CC(C)C)CC(c2nnc([C@H]3CN(C(C)=O)C[C@@H]3C(=O)Nc3ccc(C)cc3C)n2C2CC2)C1 (single isomer, unassigned) [Example F-483]",< 3 µM
7,Cc1cc(C)cc(NC(=O)CCc2nnc(CCC(C)C)n2C2CC2)c1 [Example F-76],> 3 µM
8,CC(=O)N1C[C@H](C(=O)Nc2ccc(C)cc2C)[C@@H](c2nnc(CCC3CCCCC3)n2C2CC2)C1 [Example F-402],< 3 µM
9,Cc1cccc(CNC(=O)CCc2nnc(CCC(C)C)n2C2CC2)c1 [Example F-60],> 3 µM
10,Cc1ccc(NC(=O)CCc2nnc(CCC3(C)CCCCC3)n2C2CC2)c(C)c1 [Example F-269],< 3 µM
11,CCCC(CCC)NC(=O)CCc1nnc(C2Cc3ccccc3C2)n1CC [Example F-28],> 3 µM
12,Cc1ccc(NC(=O)CC(CCN(C)C)c2nnc(CCCC(C)C)n2C2CC2)c(C)c1 (racemic) [Example F-276],> 3 µM
13,Cc1ccc(NC(=O)C[C@H](CCC(=O)O)c2noc(-c3cc(CC(C)C)n(C)n3)c2C2CC2)c(Cl)c1 [Example E-26],< 3 µM
14,CC(=O)N1C[C@@H](C(=O)Nc2ccc(C)cc2C)[C@H](c2nnc(C3CC4(CCCCC4)C3)n2C2CC2)C1 [Example F-474],< 3 µM
15,CCCc1ccccc1NC(=O)CCc1nnc(CCC(C)C)n1C1CC1 [Example F-77],> 3 µM
16,CCn1c(CCC(=O)Nc2ccc(C)cc2C)nnc1CCC1CCCC1 [Example F-48],< 3 µM
17,Cc1c(Cl)cccc1NC(=O)CCc1nnc(CCC2CCCN(C)C2)n1C1CC1 (racemic) [Example F-203],> 3 µM
18,Cc1ccc(NC(=O)C[C@H](CCC(=O)O)c2noc(-c3cc(C4CC(F)(F)C4)on3)c2C2CC2)c(Cl)c1 [Example E-47],< 3 µM
19,COc1cc(C)c(Cl)cc1CNC(=O)CCc1nnc(CCC(C)C)n1C1CC1 [Example F-204],> 3 µM
20,CCC1(CC)CC(c2nnc(CCC(=O)Nc3ccc(C)cc3C)n2C2CC2)C1 [Example F-451],< 3 µM
21,Cc1ccc(NC(=O)C[C@H](Cc2nccs2)c2nnc([C@H]3C[C@@H](CC(C)C)C3)n2C2CC2)c(C)c1 [Example F-475],< 3 µM
22,CC(=O)N1C[C@H](C(=O)Nc2ccc(C)cc2C)[C@@H](c2nnc(CCC3CCCCC3)n2C2CC2)C1 [Example F-374],< 3 µM
23,Cc1ccc(NC(=O)[C@H]2CN(S(=O)(=O)C(F)(F)F)C[C@@H]2c2nnc(CCCC(C)(C)C)n2C2CC2)c(C)c1 (racemic) [Example F-398],< 3 µM
24,Cc1ccc(NC(=O)CC(CCN)c2nnc(CCCC(C)C)n2C2CC2)c(C)c1 (racemic) [Example F-273],> 3 µM
25,Cc1ccc(NC(=O)CC(CN)c2nnc(CCCC(C)C)n2C2CC2)c(C)c1 (racemic) [Example F-274],> 3 µM
